Data set [1] deals with mixed caecal/large colon digesta. Description: Experiment 2 Part 1: in vitro fermentation of digesta with cornstarch, avoparcin, virginiamycin, flavomycin 2-32 ug/ml. The data set is classed as cell-based, horse. The conditions noted are these: for pH / Acet:Prop / Lactate / Total VFA: mean. The arrangement: Lactate / Total VFA: unit not given here. The procedure: (§1) Digesta was taken from the caecum and large colon from recently slaughtered animals and was filtered through nylon gauze (approximately 60 micron apertures). The fluid was diluted 1:1 with a buffer solution described by Bales et al. (1976) and incubated with wheat "corn starch" (with or without antibiotics) at 37° for 16 to 20 hours. Aliquots of digesta diluted with buffer (50 ml) were added to 100 ml conical flasks. The flasks were flushed with carbon dioxide before being sealed with a tightly fitting rubber cap. A 21 gauge needle was inserted through the rubber seal in order to allow gas to escape during the fermentation. On removal from the incubator sub-samples were immediately taken to measure L-lactic acid concentration and pH. For each treatment or level of antibiotic three replicate incubation flasks were used.
A range of concentrations of cornstarch providing: 0, 5, 10, 15 and 20 mg/ml diluted digesta (i.e. from 0 to 1 g cornstarch/conical flask) were tested to determine the amount required to produce a pattern of fermentation with high levels of lactic acid. Flasks were also prepared with cornstarch mixed with antibiotic premixes to provide 15 mg cornstarch/ml incubation mixture and 0, 2, 4, 8, 16 and 32 ug of avoparcin, virginiamycin or flavomycin per ml incubation mixture. After approximately 16 hour incubation at 37° samples were taken to measure lactic acid, VFA and pH.

Data set [2] deals with caecal and large colon contents. The data set is described as follows: Experiment 2 Part 3: in vitro screening at 2 ug/ml in digesta of four horses. It is filed as cell-based, horse. The note with it: 2 ug antibiotic/ml, 15 mg cornstarch/ml, 20 hour incubation. The procedure:
as §1
All four of the antibiotics, listed above, were incubated as previously described to provide 2 ug antibiotic and 15 mg cornstarch per ml incubation mixture. There was one flask per test and each antibiotic was incubated in digesta from both the caecum and the large colon taken from each of 4 animals. Samples of incubation fluid were taken following a 20 hour incubation and were analysed for L-lactate and pH.

Data set [3] relates to horses dosed with 15 g wheat/kg liveweight. The note with it: for D-lactic acid, caecum / D-lactic acid, large colon / L-lactic acid, large colon / Lameness (Obel grade): avoparcin 120 mg/kg wheat; for D-lactic acid, caecum / D-lactic acid, large colon / L-lactic acid, large colon: 24 hours after wheat; for Lameness (Obel grade): within 24 hours of wheat.
Protocol: Four horses were dosed with 15 g wheat/kg liveweight. The wheat given to two of the animals contained 120 mg avoparcin/kg wheat, and the other two animals received the wheat without medication. Animals were examined prior to dosing and at intervals of eight hours after the dosing for a period of 24 hours. At these times temperature and heart rate were measured, and a sample of venous blood was taken for the measurement of pH, blood gases, bicarbonate, D-lactate and L-lactate. Animals were also examined for any signs of lameness according to the criteria of Obel (1948) as summarized by Garner et al (1977). After 24 hours all animals were slaughtered and samples of digesta were taken from the caecum and large colon for analysis of lactic acid, VFA and avoparcin concentration.
Another data set deals with sheep. The note with it: sheep dosed with round wheat; Aitchison et al. (1986); cited from earlier work.
The test system of a further data set is cattle. The note with it: Nagaraja et al. (1981); cited from earlier work.
The test system of another data set is horses. The conditions noted are these: cited from earlier work.
Where [4] appears, read: antibiotic 2 μg/ml, cornstarch 15 mg/ml, approx 16 hour incubation.
Setting [5] is: antibiotic 4 μg/ml, cornstarch 15 mg/ml, approx 16 hour incubation.
Setting [6] is: antibiotic 8 μg/ml, cornstarch 15 mg/ml, approx 16 hour incubation.
Where [7] appears, read: antibiotic 16 μg/ml, cornstarch 15 mg/ml, approx 16 hour incubation.
Setting [8] is: antibiotic 32 μg/ml, cornstarch 15 mg/ml, approx 16 hour incubation.

Where two headings read alike, the source gives them in different places.

Consider avoparcin, for which the pH is on record as 6.14 in data set [1] (antibiotic 2 μg/ml, cornstarch 15 mg/ml, approx 16 hour incubation at 37°); 6.17 in data set [1] (setting [5]); 6.33 in data set [1] (setting [6]); 6.40 in data set [1] (setting [7]); 6.43 in data set [1] (setting [8]); 5.12 in data set [2] (Horse 1). The pH in data set [2] (Horse 2) is 4.57; in data set [2] (Horse 3) it was 4.75; in data set [2] (Horse 4) it was 5.15; in data set [2] (Mean of 4 horses), 4.90. The “Acet:Prop” value in data set [1] (setting [4]) is on record as 2.9; in data set [1] (setting [5]), 2.8; in data set [1] (setting [6]), 3.3; in data set [1] (setting [7]), 3.5; in data set [1] (setting [8]) it was 3.6. Also, the Lactate in data set [1] (setting [4]) is 8.9; in data set [1] (setting [5]), 12.0; in data set [1] (setting [6]) it was 11.0; in data set [1] (setting [7]), 10.3; in data set [1] (setting [8]), 15.1. In addition, the “Total VFA” value in data set [1] (setting [4]) is reported as 102.6; in data set [1] (setting [5]), 100.9; in data set [1] (setting [6]), 82.1; in data set [1] (setting [7]), 87.1; in data set [1] (setting [8]), 89.8. In addition, in data set [1] (even at 32 µg/ml, cornstarch 15 mg/ml), the “control of lactic acid build-up” value is “only partially controlled”. Also, the entries for the “control of lactic acid” value (in data set [1] (even at the highest concentrations (approx 32 times the minimum effective dose of virginiamycin)); in the data set on sheep) were “failed to completely control lactic acid” and “particularly effective”, respectively. Moreover, the L-lactate in data set [2] (Horse 1, mean of caecum and large colon) came out at 19.8 mmol/L; in data set [2] (Horse 2, mean of caecum and large colon), 67.9 mmol/L; in data set [2] (Horse 3, mean of caecum and large colon) it was 34.5 mmol/L; in data set [2] (Horse 4, mean of caecum and large colon) it was 20.0 mmol/L; in data set [2] (Mean of 4 horses), 35.5 mmol/L. For the same molecule, the “Lactic acid concentrations, large colon digesta versus caecal contents” value in data set [3] (animals given avoparcin) was “appreciably lower in the large colon digesta”. Further, the “D-lactic acid, caecum” value amounted to 33 mmol/L in data set [3] (horse 2) and 34 mmol/L in data set [3] (horse 4). Further, the entries for the “D-lactic acid, large colon” value in data set [3] (horse 2) and in data set [3] (horse 4) were 2 mmol/L and 11 mmol/L, respectively. Also, the “L-lactic acid, large colon” value in data set [3] (horse 2) came to 2 mmol/L; in data set [3] (horse 4), 10 mmol/L. The “Lameness (Obel grade)” value in data set [3] (horse 2) and in data set [3] (horse 4) was “Obel 2” in each case. Also, in data set [3] (in vivo), the “concentrations of the antibiotic, caecum versus large colon” value is recorded as “lower in the caecum than in the large colon”. The “Lactic acid accumulation in the hind-gut and lameness” value in data set [3] (wheat slurry with and without avoparcin) is “developed irrespective of the presence of avoparcin”.
As for `CC[C@@]1([C@@H]2O[C@@H]([C@H]3O[C@@](O)(CO)[C@H](C)C[C@@H]3C)C[C@@H]2C)CC[C@H]([C@]2(C)CC[C@]3(C[C@H](O)[C@@H](C)[C@@H]([C@@H](C)[C@@H](OC)[C@H](C)C(=O)O)O3)O2)O1` [monensin], in the data set with cattle, the “control of lactic acidosis” value is “lactic acidosis could be controlled”. Moreover, the “toxicity on the host” value in the data set on horses was “highly toxic”.

Values taken from US5204361A, “Method for treating laminitis in equine livestock” (priority 1988, dated 1993).
